Like-named read-outs stand apart in the source and are kept apart here. Starred links: 1 amine or outer side, 2 acyl side, 3 side chain; linkers in the order of their positions; H or OH if unused. Non-standard residues stand in square brackets, D forms with d. Residues, ends and D or L forms follow the SMILES beside them. *: point of attachment. Benzoyl(4-(pyrrol-1-yl)) = O=C(c1ccc(-n2cccc2)cc1)*; Phenylacetyl(3,4-Cl2) = O=C(Cc1ccc(Cl)c(Cl)c1)*; Cysteamide = C(CS[*:3])N[*:1]; Dap = NC[C@H](N)C(=O)O
Experiments:
[1] = target: T1, PKCα (Homo sapiens, UniProt P17252); assay: Protein Kinase Cα radioactive assay, peptide substrate Ac-Ser-Phe-Arg-Arg-Arg-NH2 (Example 1); type: biochemical; parameters: purchased Pan Vera; conditions: versus variable peptide substrate
Protocol: Protein Kinase C Assay (general). The peptides […] (for PKC α, β and γ) and acetyl-[…] (for PKC ε and ζ) were used as substrates. […] Total reaction volume was 50 μL. […] Following an additional 5 min incubation at ambient temperature, 75 μL from each reaction well was transferred into each well of a Unifilter (P81 cellulose phosphate paper) assay plate and washed four times with 0.1% phosphoric acid in water. […] IC50 values were calculated using GraFit (Erithacus Software Limited) and Ki values were calculated using Enzyme Kinetics, SigmaPlot (SPSS Inc.) […] An analogous protocol was employed for peptide 4 versus variable [[…]]. […] An analogous protocol was employed for peptide 4 versus variable [ATP]. Protein Kinase Cα Assay (Ki determination for peptide 6 versus variable […] substrate). […] The reaction was initiated as described above. […] Following an additional 5 min incubation at ambient temperature, 75 μL from each reaction well was transferred into each well of a Unifilter (P81 cellulose phosphate paper) assay plate and washed four times with 0.1% phosphoric acid in water. […] IC50 values were calculated using GraFit (Erithacus Software Limited) and Ki values were calculated using Enzyme Kinetics, SigmaPlot (SPSS Inc.)

[2] = target: T2, PKCζ (Homo sapiens, UniProt Q05513); assay: PKC isoform assay, Example 1; type: biochemical; parameters: purchased Pan Vera
T2 sequence (Q05513 1-592): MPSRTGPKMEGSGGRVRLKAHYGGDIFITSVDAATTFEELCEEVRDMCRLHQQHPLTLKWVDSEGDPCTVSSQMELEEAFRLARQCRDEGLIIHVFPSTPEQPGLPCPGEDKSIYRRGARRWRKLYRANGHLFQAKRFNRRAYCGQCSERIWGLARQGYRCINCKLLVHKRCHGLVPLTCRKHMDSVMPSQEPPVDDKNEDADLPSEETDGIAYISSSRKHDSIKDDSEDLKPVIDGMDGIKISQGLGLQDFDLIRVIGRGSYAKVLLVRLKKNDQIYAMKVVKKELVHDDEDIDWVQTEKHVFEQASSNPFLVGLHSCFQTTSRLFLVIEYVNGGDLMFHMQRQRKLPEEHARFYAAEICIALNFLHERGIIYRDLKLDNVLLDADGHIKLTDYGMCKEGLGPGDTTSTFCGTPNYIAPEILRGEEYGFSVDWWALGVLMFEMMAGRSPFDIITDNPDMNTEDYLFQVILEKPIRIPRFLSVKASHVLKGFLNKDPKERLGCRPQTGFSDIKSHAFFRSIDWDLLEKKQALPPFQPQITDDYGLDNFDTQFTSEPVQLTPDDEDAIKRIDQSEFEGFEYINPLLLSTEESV
Protocol: (§1) Protein Kinase C Assay (general). The peptides Ac-Ser-Phe-Arg-Arg-Arg-NH2 (for PKC α, β and γ) and acetyl-[…]NH2 (for PKC ε and ζ) were used as substrates.
(§2) PKCε and ζ Assay (IC50 determinations). […] 10 μL enzyme diluted buffer containing 10 mM HEPES (pH 7.5), 10 mM DTT, BSA(3.8 mg/mL), 10 mM EDTA.4Na.2H2O and PKC (20 ng/μL) were added last to this buffer. Reactions were carried out as described above for the Protein Kinase Cα assay.

[3] = target: T3, PKCε (Homo sapiens, UniProt Q02156); assay: PKC isoform assay, Example 1; type: biochemical; parameters: purchased Pan Vera
T3 sequence (Q02156 1-737): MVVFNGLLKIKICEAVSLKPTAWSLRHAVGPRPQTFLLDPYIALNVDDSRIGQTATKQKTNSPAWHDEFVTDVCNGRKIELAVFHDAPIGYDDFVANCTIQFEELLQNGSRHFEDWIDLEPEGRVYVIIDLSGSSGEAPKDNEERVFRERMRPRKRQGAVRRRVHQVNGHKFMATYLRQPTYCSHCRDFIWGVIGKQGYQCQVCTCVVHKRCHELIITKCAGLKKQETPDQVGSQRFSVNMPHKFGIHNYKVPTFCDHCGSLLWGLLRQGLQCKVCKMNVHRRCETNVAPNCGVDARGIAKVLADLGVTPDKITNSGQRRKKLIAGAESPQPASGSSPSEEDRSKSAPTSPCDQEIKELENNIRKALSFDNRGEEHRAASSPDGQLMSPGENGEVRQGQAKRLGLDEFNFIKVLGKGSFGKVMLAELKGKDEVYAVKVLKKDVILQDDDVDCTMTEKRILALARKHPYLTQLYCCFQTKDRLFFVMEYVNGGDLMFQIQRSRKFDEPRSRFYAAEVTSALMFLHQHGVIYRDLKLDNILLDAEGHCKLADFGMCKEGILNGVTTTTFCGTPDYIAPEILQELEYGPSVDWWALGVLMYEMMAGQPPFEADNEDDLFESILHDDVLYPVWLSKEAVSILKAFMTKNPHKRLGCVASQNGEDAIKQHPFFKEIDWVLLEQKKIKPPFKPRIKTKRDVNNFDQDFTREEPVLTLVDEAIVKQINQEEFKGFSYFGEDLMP
Protocol: as §1, §2

[4] = target: PKCγ (Homo sapiens, UniProt P05129); parameters: purchased Panvera; conditions: literature values; relative to most potently inhibited isoform (=1); cited from earlier work
[5] = target: T1, PKCα; conditions: cited from earlier work
[6] = target: PKCη (Homo sapiens, UniProt P24723); parameters: purchased Panvera; conditions: literature values; relative to most potently inhibited isoform (=1); cited from earlier work
PKCη, sequence (P24723 whole entry, canonical isoform): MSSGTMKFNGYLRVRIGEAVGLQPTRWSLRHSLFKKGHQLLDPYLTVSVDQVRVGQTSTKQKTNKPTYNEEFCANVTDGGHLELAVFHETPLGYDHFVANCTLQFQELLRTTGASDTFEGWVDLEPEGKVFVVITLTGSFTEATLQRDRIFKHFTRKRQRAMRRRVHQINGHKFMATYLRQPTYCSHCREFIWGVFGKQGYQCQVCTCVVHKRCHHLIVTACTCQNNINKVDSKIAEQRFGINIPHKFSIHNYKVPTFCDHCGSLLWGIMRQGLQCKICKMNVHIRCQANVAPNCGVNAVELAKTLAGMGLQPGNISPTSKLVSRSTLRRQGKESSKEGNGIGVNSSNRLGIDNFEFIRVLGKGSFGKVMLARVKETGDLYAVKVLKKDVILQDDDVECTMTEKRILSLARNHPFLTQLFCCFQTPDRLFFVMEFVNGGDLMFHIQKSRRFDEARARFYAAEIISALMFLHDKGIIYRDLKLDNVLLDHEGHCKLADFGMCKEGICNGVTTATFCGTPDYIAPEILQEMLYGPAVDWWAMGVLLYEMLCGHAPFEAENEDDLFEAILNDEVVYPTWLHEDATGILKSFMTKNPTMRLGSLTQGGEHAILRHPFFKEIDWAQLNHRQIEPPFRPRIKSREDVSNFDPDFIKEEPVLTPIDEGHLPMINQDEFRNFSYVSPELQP

Structure (SMILES): CC(C)C[C@H](NC(=O)[C@H](C)NC(=O)CNC(=O)[C@H](CCCNC(=N)N)NC(=O)[C@H](CCCNC(=N)N)NC(=O)[C@H](C)NC(=O)Cc1ccc(Cl)c(Cl)c1)C(=O)N[C@@H](CCCNC(=N)N)C(=O)N[C@@H](CNC(=O)c1ccc(-n2cccc2)cc1)C(=O)N[C@@H](C)C(=O)NCCS [Compound 6] ({Phenylacetyl(3,4-Cl2)}-ARRGALR[Dap](Benzoyl(4-(pyrrol-1-yl)))A-Cysteamide)
- Ki [1]: 0.8 nM
- selectivity for PKCα versus PKCζ [2]: 640 fold
- selectivity for PKCα versus PKCε [3]: 600 fold
- Fold selectivity (IC50), PKC γ [4]: 580 fold
- Ki ([5]; Lee et al., 2004, equals the Ki of compound 6 in Table 1, read-out: IC50 or Ki of the most potently inhibited isoform, PKC α (in parentheses)): 0.8 nM
- Fold selectivity (IC50), PKC α ([5]; literature values, relative to most potently inhibited isoform (=1)): 1 fold
- Fold selectivity (IC50), PKC η [6]: 1310 fold

Source: patent publication US20070254312A1, “Protein Kinase Inhibitors and Methods for Identiying Same” (priority 2004, published 2007)
